Source: ChEMBL document CHEMBL1129562, “Non-peptide cholecystokinin-B/gastrin receptor antagonists based on bicyclic, heteroaromatic skeletons” (J Med Chem, 1996)

What was measured:
[1] = target: T1, Cholecystokinin receptor type A (Cavia porcellus, UniProt Q63931); test: In vitro inhibitory activity against Cholecystokinin type A receptor using [125I]BH-CCK-8S as radioligand in guinea pig pancreatic cells
T1 sequence (Q63931 whole entry): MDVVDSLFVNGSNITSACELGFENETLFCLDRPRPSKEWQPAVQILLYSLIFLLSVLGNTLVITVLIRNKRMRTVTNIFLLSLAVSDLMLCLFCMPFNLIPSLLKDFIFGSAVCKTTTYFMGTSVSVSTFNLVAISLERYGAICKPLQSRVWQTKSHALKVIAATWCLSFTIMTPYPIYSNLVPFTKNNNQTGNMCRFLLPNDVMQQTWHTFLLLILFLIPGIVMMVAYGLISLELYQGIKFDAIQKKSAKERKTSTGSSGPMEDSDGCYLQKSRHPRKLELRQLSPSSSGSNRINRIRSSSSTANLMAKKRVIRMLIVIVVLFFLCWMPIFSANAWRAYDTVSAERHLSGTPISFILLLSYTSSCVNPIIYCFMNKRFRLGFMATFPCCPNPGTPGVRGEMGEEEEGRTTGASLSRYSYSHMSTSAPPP

[2] = target: T2, Gastrin/cholecystokinin type B receptor (Rattus norvegicus) (UniProt P30553); test: Intravenous activity against Cholecystokinin type B receptor in Gosh and Schild rat at a dsoe of 0.025 umol/kg (in vivo); format: functional, organism-based
T2 sequence (whole entry): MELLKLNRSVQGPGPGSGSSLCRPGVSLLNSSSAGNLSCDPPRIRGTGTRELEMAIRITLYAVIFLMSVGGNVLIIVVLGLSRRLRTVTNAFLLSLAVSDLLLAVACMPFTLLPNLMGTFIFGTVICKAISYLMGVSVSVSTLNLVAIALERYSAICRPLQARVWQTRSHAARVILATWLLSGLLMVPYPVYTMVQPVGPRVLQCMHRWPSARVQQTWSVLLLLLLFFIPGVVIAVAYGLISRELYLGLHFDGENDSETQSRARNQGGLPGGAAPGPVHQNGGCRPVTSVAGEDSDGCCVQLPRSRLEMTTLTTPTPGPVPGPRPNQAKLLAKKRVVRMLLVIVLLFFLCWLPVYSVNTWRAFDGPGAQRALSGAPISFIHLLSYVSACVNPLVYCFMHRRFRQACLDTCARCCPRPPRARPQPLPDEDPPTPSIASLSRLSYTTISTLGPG

Canis familiaris = test: Intravenous activity against CCKB/Gastrin antagonist in gastric fistula dog at dose 0.1 uM/kg (in vivo); format: functional, Canis lupus familiaris, Stomach
[3] = target: T3, Gastrin/cholecystokinin type B receptor (Mus musculus, UniProt P56481); test: In vitro inhibitory activity against Cholecystokinin type B receptor using [125I]BH-CCK-8S as radioligand in mouse cortical membranes; format: cell membranes
T3 sequence (P56481 whole entry): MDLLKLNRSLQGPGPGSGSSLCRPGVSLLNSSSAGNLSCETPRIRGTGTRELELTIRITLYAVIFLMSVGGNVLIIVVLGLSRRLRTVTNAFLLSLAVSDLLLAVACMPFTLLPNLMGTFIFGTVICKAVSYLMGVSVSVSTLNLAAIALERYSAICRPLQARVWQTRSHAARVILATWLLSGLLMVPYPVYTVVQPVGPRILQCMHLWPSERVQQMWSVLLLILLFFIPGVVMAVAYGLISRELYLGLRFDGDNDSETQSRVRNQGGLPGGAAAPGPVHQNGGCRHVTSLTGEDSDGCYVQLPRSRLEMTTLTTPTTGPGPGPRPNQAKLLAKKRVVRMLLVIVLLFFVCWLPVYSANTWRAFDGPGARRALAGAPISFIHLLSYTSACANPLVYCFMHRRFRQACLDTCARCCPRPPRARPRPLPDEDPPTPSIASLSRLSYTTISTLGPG

Compound	Ki [1] [nM]	inhibition [2] [%]	Inhibition (Canis familiaris) [%]	Ki [3] [nM]
O=C(O)c1cc(NC(=O)[C@H](Cc2ccccc2)NC(=O)c2cc3cc[nH]c3cc2C(=O)NCC23CC4CC(CC(C4)C2)C3)cc(C(=O)O)c1	3630	97	79	1.1
O=C(O)c1cc(NC(=O)[C@H](Cc2ccccc2)NC(=O)c2cc3ccccc3cc2C(=O)NCC23CC4CC(CC(C4)C2)C3)cc(C(=O)O)c1	851			13.2
O=C(O)C1C2c3ccccc3C(c3ccccc32)C1C(=O)NCC12CC3CC(CC(C3)C1)C2 (stereo not drawn)	8320			537
O=C(NCC12CC3CC(CC(C3)C1)C2)c1cc2ccccc2cc1C(=O)N1CCC[C@@H]1C(=O)O	3550			339
O=C(O)c1cc(NC(=O)[C@H](Cc2ccccc2)NC(=O)c2cc3[nH]ccc3cc2C(=O)NCC23CC4CC(CC(C4)C2)C3)cc(C(=O)O)c1	3390			13.5
O=C(O)c1cc(NC(=O)[C@H](Cc2ccc(O)cc2)NC(=O)c2cc3[nH]cnc3cc2C(=O)NCC23CC4CC(CC(C4)C2)C3)cc(C(=O)O)c1	2820			
O=C(NCC12CC3CC(CC(C3)C1)C2)c1cc2[nH]ccc2cc1C(=O)N[C@@H](Cc1ccccc1)C(=O)Nc1cc(-c2nn[nH]n2)cc(-c2nn[nH]n2)c1	1290			1.2
O=C(NCC12CC3CC(CC(C3)C1)C2)c1cc2nc[nH]c2cc1C(=O)N[C@@H](Cc1ccccc1)C(=O)Nc1cc(-c2nn[nH]n2)cc(-c2nn[nH]n2)c1	891			4.07
O=C(NCC1CCCCCC1)c1cc2nc[nH]c2cc1C(=O)N[C@@H](Cc1ccccc1F)C(=O)Nc1cc(-c2nn[nH]n2)cc(-c2nn[nH]n2)c1	912			3.89
O=C(O)c1cc(NC(=O)[C@H](Cc2ccccc2)NC(=O)c2cc3[nH]cnc3cc2C(=O)NCC23CC4CC(CC(C4)C2)C3)cc(C(=O)O)c1	1480	61		5.25
O=C(O)c1cc2ccccc2cc1C(=O)NCC12CC3CC(CC(C3)C1)C2	11700			2880
O=C(O)c1cc(NC(=O)[C@H](Cc2ccccc2)NC(=O)c2cc3ccsc3cc2C(=O)NCC23CC4CC(CC(C4)C2)C3)cc(C(=O)O)c1	2240			1.23
O=C(O)c1cc(NC(=O)[C@H](Cc2ccccc2F)NC(=O)c2cc3[nH]cnc3cc2C(=O)NCC23CC4CC(CC(C4)C2)C3)cc(C(=O)O)c1	2570			4.47
O=C(O)c1cc(NC(=O)[C@H](Cc2ccccc2F)NC(=O)c2cc3cc[nH]c3cc2C(=O)NCC23CC4CC(CC(C4)C2)C3)cc(C(=O)O)c1	3310			0.741
O=C(O)c1cc(NC(=O)[C@H](Cc2ccccc2F)NC(=O)c2cc3[nH]cnc3cc2C(=O)NCC2CCCCCC2)cc(C(=O)O)c1	7410			7.59
O=C(O)c1cc(NC(=O)[C@H](Cc2ccccc2)NC(=O)c2cc3ccoc3cc2C(=O)NCC23CC4CC(CC(C4)C2)C3)cc(C(=O)O)c1	3800			5.37
O=C(O)c1cc(NC(=O)[C@H](Cc2ccccc2)NC(=O)c2cc3cc[nH]c3cc2C(=O)NCC2CCCCCC2)cc(C(=O)O)c1	3160			15.1
O=C(NCC12CC3CC(CC(C3)C1)C2)C1C2c3ccccc3C(c3ccccc32)C1C(=O)N1CCC[C@@H]1C(=O)O (stereo partly drawn)	8130			891
